The text below walks through data of patent US20220125765A1, “PHARMACEUTICAL COMBINATIONS COMPRISING MEBENDAZOLE AND A STRONG OR MODERATE CYP1A2 INHIBITOR” (ZEPHAPHARM LTD, priority 2019, published 2022).

By hepatocyte CLint is commonly meant a measure of how fast metabolising enzymes remove a compound, apart from limits set by blood flow. Low values mean greater metabolic stability, high ones faster metabolism. As a reminder, the microsomal CLint is the rate of metabolic loss divided by the concentration.

Data set [1] in a line: Stability in human cryopreserved hepatocytes without and with cimetidine or thiabendazole (Example 6). As to conditions: human, substrate 1 μM; for half-life at 1 μM: t½.
Experimental: Mebendazole (1 μM) was incubated with cryopreserved human hepatocytes for 60 min in the absence and presence of cimetidine at 30, 100 and 300 μM) and thiabendazole at 10, 30 and 100 μM and samples taken at the required time points. The amount of test compound remaining at each time point was analysed by LC-MS/MS. Appropriate control compounds were also incubated along with ethoxycoumarin, which was incubated in the absence and presence of cimetidine and thiabendazole.
The final incubation volume was 500 μL. Two control compounds were included, alongside appropriate vehicle control. A positive control compound, ethoxycoumarin, for CYP1A2 was included. The positive control compound was incubated without inhibitor and in the presence of each inhibitor. The reactions were stopped by transferring 50 μL of incubate to 100 μL acetonitrile containing internal standard at the appropriate time points (0, 5, 10, 20, 40 and 60 min). The termination plates were centrifuged at 2500 rpm at 4° C. for 30 min to precipitate the protein.
Data set [2] is described as follows: Stability in human liver microsomes without and with cimetidine or furafylline (Example 4). The data set is classed as in vitro ADME. The note with it: substrate 1 μM; for half-life at 1 μM / microsomal CLint at 1 μM: human, liver microsomes. Here is the method:
A minus cofactor control incubation was included for each compound tested where 0.1 M phosphate buffer pH 7.4 was added instead of NADPH (minus NADPH). […] The samples were analysed for mebendazole or phenacetin using LC-MS/MS.
A minus cofactor control incubation was included for each compound tested where 0.1 M phosphate buffer pH 7.4 was added instead of cofactor (minus NADPH). […] The samples were analysed for mebendazole or phenacetin using LC-MS/MS.
(Liver microsomes are vesicles of endoplasmic reticulum, rich in cytochrome P450 enzymes.)

The nature of data set [3]: Stability in human cryopreserved hepatocytes without and with cimetidine or furafylline (Example 5). The data set is classed as in vitro ADME. As to conditions: human, substrate 1 μM, read-out: t1/2. Here is the method:
The final incubation volume was 500 μL. Two control compounds were included with each species, alongside appropriate vehicle control.
The samples were analysed for mebendazole or ethoxycoumarin using LC-MS/MS.
The final incubation volume was 500 μL.
A positive control compound, ethoxycoumarin, for CYP1A2 was included. […] The samples were analysed for mebendazole or ethoxycoumarin using LC-MS/MS.

[4] abbreviates: cryopreserved hepatocytes (suspension), no inhibitor.
[5] abbreviates: cryopreserved hepatocytes, with cimetidine 30 μM, cimetidine 30 μM.
The mark [6] stands for this setting: cryopreserved hepatocytes, with cimetidine 100 μM, cimetidine 100 μM.
Setting [7] is: cryopreserved hepatocytes, with cimetidine 300 μM, cimetidine 300 μM.
[8] abbreviates: pH 7.4, with cimetidine 30 μM, plus 30 μM cimetidine.
Where [9] appears, read: pH 7.4, with cimetidine 100 μM, plus 100 μM cimetidine.
The mark [10] stands for this setting: pH 7.4, with cimetidine 300 μM, plus 300 μM cimetidine.

On to `CCOc1ccc2ccc(=O)oc2c1`, for which the hepatocyte CLint at 1 µM was 105 µL/min/1e6 cells in data set [1] (setting [4]); 99.9 µL/min/1e6 cells in data set [1] (cryopreserved hepatocytes (suspension), with cimetidine 30 µM, cimetidine 30 μM); 88.8 µL/min/1e6 cells in data set [1] (cryopreserved hepatocytes (suspension), with cimetidine 100 µM, cimetidine 100 μM); 59.8 µL/min/1e6 cells in data set [1] (cryopreserved hepatocytes (suspension), with cimetidine 300 µM, cimetidine 300 μM); 8.65 µL/min/1e6 cells in data set [1] (cryopreserved hepatocytes (suspension), with thiabendazole 10 µM, thiabendazole 10 μM); 5.35 µL/min/1e6 cells in data set [1] (cryopreserved hepatocytes (suspension), with thiabendazole 30 µM, thiabendazole 30 μM). Further, the hepatocyte CLint at 1 µM in data set [1] (cryopreserved hepatocytes (suspension), with thiabendazole 100 µM, thiabendazole 100 μM) came to 4.05 µL/min/1e6 cells. Further, the half-life at 1 μM came out at 13.2 min in data set [1] (setting [4]); 13.9 min in data set [1] (setting [5]); 15.6 min in data set [1] (setting [6]); 23.2 min in data set [1] (setting [7]); 160 min in data set [1] (cryopreserved hepatocytes, with thiabendazole 10 μM, thiabendazole 10 μM); 259 min in data set [1] (cryopreserved hepatocytes, with thiabendazole 30 μM, thiabendazole 30 μM). This compound gave a half-life at 1 μM in data set [1] (cryopreserved hepatocytes, with thiabendazole 100 μM, thiabendazole 100 μM) of 343 min.
For `CCOc1ccc(NC(C)=O)cc1` [Phenacetin], the half-life at 1 μM in data set [2] (setting [8]) was 65.3 min; in data set [2] (setting [9]) it was 78.9 min; in data set [2] (setting [10]), 99.6 min; in data set [2] (pH 7.4, no inhibitor), 61.9 min; in data set [3] (setting [4]), 12.9 min; in data set [3] (setting [5]), 13.4 min. Further, the half-life at 1 μM was 15.7 min in data set [3] (setting [6]); 18.8 min in data set [3] (setting [7]); 59.6 min in data set [3] (cryopreserved hepatocytes, with furafylline 3 μM, furafylline 3 μM); 89.3 min in data set [3] (cryopreserved hepatocytes, with furafylline 10 μM, furafylline 10 μM); 110 min in data set [3] (cryopreserved hepatocytes, with furafylline 30 μM, furafylline 30 μM). Moreover, the microsomal CLint at 1 μM in data set [2] (setting [8]) was 21.2 µL/min/mg; in data set [2] (setting [9]) it was 17.6 µL/min/mg; in data set [2] (setting [10]) it was 13.9 µL/min/mg; in data set [2] (pH 7.4, with furafylline 3 μM, plus 3 μM furafylline), 3 to 49 µL/min/mg; in data set [2] (pH 7.4, with furafylline 10 μM, plus 10 μM furafylline), 2 to 58 µL/min/mg; in data set [2] (pH 7.4, with furafylline 30 μM, plus 30 μM furafylline), 2.71 µL/min/mg. In data set [2] (pH 7.4, no inhibitor), this compound registered a microsomal CLint at 1 μM of 22.4 µL/min/mg. For the same compound, the CLint is 3.49 μL/min/mg protein in data set [2] (plus 3 μM furafylline) and 2.58 μL/min/mg protein in data set [2] (plus 10 μM furafylline).
Regarding `O=c1ccc2ccc(O)cc2o1` [Umbelliferone], the half-life at 1 μM in data set [3] (setting [4]) is 7.95 min. Further, in data set [1] (setting [4]), the hepatocyte CLint at 1 µM stood at 229 µL/min/1e6 cells and the half-life at 1 μM was 6.05 min.
